The test system of one assay is F. tularensis. In words: microbe, parasite or virus in culture. It counts as cell-based. The note with it: Francisella tularensis, read-out: MIC F. tularensis.
In another assay the test system is B. pseudomallei. The assay can be described thus: microbe, parasite or virus in culture. It counts as cell-based. To be noted: Burkholderia pseudomallei, read-out: MIC B. pseudomallei.
The next assay concerns B. abortus. The assay can be described thus: microbe, parasite or virus in culture. The format is cell-based. The note with it: Brucella abortus, read-out: MIC B. abortus.
A further assay deals with B. anthracis. The assay can be described thus: microbe, parasite or virus in culture. The note with it: Bacillus anthracis, read-out: MIC B. anthracis. It counts as cell-based.
In the next assay the test system is E. faecalis 29212. In words: MIC, standard panel of Gram-positive and Gram-negative bacteria (CLSI). The note with it: Enterococcus faecalis, 29212; CAMHB; read-out: MIC E. faecalis 29212. It counts as cell-based, Enterococcus faecalis.
The test system of a further assay is S. pneumoniae 49619. The assay can be described thus: MIC, panel of quinolone-resistant strains (CLSI). It counts as cell-based. The note with it: Streptococcus pneumoniae, LEV S.
Assay [1] relates to GN10 Pseudomonas aeruginosa. The assay can be described thus: Pre-chequerboard MIC, broth microdilution (Example 6). The note with it: ATCC 27853 / GN10, ATCC 27853, antibiotic susceptible. The format is cell-based. An excerpt:
(§1) A chequerboard technique was used to identify possible synergistic or antagonistic interactions between the 4-oxoquinolizines compounds, levofloxacin and polymyxin B. Levofloxacin was included as a control. […] Final dilutions were made in Mueller-Hinton broth, the specific test medium used for MIC determinations according to CLSI guidelines (CLSI. Methods for Dilution Antimicrobial Susceptibility Tests for Bacteria That Grow Aerobically; Approved Standard-Eighth Edition (2009). CLSI Document M07-A8. CLSI, Wayne, Pa. 19087-1898, USA.). The test medium used was a cation-adjusted Mueller-Hinton Broth II (Becton Dickinson UK Ltd., Oxford Science Park, Oxford, UK, OX4 4DQ).
(§2) The compounds 2, 33 and 35, as well as levofloxacin were tested in combination with polymyxin B on the following isolates: GN31 Acinetobacter baumannii—antibiotic susceptible clinical isolate, GN52 Acinetobacter baumannii—levofloxacin resistant clinical isolate, GN56 Acinetobacter baumannii—levofloxacin resistant clinical isolate, GN48 Klebsiella pneumoniae—NCTC 13443—NDM-1-metallo-R-lactamase and GN10 Pseudomonas aeruginosa—ATCC 27853—antibiotic susceptible reference isolate. All isolates are from the collection maintained at Quotient Bioresearch Ltd., Cambridge, UK.
(§3) The MIC values for the compounds and polymyxin B and levofloxacin were determined by broth microdilution following CLSI guidelines, and the MICs of agents in combination were determined as described by Pillai et.al (Pillai S K, Moellering R C Jr, Eliopoulis G M; Antimicrobial Combinations in Antibiotics in Laboratory Medicine 5th Edition (V. Lorian Ed) (2005) p 365-440). Initial MIC results were used to determine the microtiter plate patterns for the chequerboards. A suitable doubling dilution concentration range was selected such that the combination antibiotic range was at least two concentrations above and four concentrations below the MIC for each isolate. A fixed range of 0.008 to 8 mg/L was tested for polymyxin B except in the case of A. baumannii GN31 where a range of 0.004 to 4 mg/L was tested when in combination with the compounds 2, 33 and 35 as well as levofloxacin.

For assay [2], the system named is GN48 Klebsiella pneumoniae. Described as above. The format is cell-based. To be noted: GN48 / NCTC 13443, NCTC 13443, NDM-1.
Excerpt: as §1, §2, §3

Assay [3] concerns GN52 Acinetobacter baumannii. The assay is described as above. To be noted: levofloxacin resistant clinical isolate. The format is cell-based.
Excerpt: as §1, §2, §3

Assay [4] concerns GN48 Klebsiella pneumoniae. In words: Chequerboard synergy with polymyxin B (FICI). It counts as cell-based. To be noted: combination with polymyxin B.
Excerpt: as §1, §2, §3
(§4) From the raw data, fractional inhibitory concentration indices (FICI) were determined for the compounds of the invention and levofloxacin together with polymyxin B for each isolate as follows: FICI=FICX+FICY Where,
(§5) FICX=concentration of the combination antibiotic in a particular row÷MIC of the combination drug alone
(§6) FICY=MIC of polymyxin B in combination÷MIC of the polymyxin B alone
(§7) Additionally isobolograms were created to represent the same data visually. Here, the MIC of polymyxin B was plotted against every concentration of the combination antibiotic up to the MIC.

Assay [5] concerns S. aureus ATCC 43300 (MRSA, FQ-S). In words: MIC, selected panel of Gram-positive and Gram-negative strains (Example 5). The format is cell-based, Staphylococcus aureus. The note with it: Staphylococcus aureus; read-out: MIC S. aureus ATCC 43300 (MRSA, FQ-S).
In a further assay the test system is E. faecium 19434. The assay can be described thus: MIC, standard panel of Gram-positive and Gram-negative bacteria (CLSI). It counts as cell-based, Enterococcus faecium. The note with it: Enterococcus faecium, 19434; CAMHB; read-out: MIC E. faecium 19434.
A further assay has as its system S. aureus ATCC 25923. In words: MIC, selected panel of Gram-positive and Gram-negative strains (Example 5). The note with it: Staphylococcus aureus, ATCC25923; read-out: MIC S. aureus ATCC 25923. It counts as cell-based.
In another assay the test system is B. thailandensis E264. The assay can be described thus: microbe, parasite or virus in culture. The format is cell-based, Burkholderia thailandensis. To be noted: Burkholderia thailandensis, E264, read-out: MIC B. thailandensis E264.
Assay [6] concerns S. aureus BAA-1556 (USA300-Type MRSA, FQ-R). The assay can be described thus: MIC, selected panel of Gram-positive and Gram-negative strains (Example 5). It counts as cell-based, Staphylococcus aureus. The note with it: Staphylococcus aureus; read-out: MIC S. aureus BAA-1556 (USA300-Type MRSA, FQ-R).
Another assay relates to E. coli ATCC 25922. The assay is described as above. To be noted: Escherichia coli, ATCC25922; read-out: MIC E. coli ATCC 25922. The format is cell-based, Escherichia coli.
The subject of another assay is P. aeruginosa ATCC 27853. The assay is described as above. It counts as cell-based. The note with it: Pseudomonas aeruginosa, ATCC27853; read-out: MIC P. aeruginosa ATCC 27853.
The test system of another assay is E. cloacae 13047. The assay can be described thus: MIC, standard panel of Gram-positive and Gram-negative bacteria (CLSI). The note with it: Enterobacter cloacae, 13047; CAMHB; read-out: MIC E. cloacae 13047. It counts as cell-based, Enterobacter cloacae.
A further assay has as its system A. baumannii ATCC 19606. The assay can be described thus: MIC, selected panel of Gram-positive and Gram-negative strains (Example 5). It counts as cell-based, Acinetobacter baumannii. To be noted: Acinetobacter baumannii, ATCC19606; read-out: MIC A. baumannii ATCC 19606.
Assay [7] deals with GN31 Acinetobacter baumannii. The assay can be described thus: Pre-chequerboard MIC, broth microdilution (Example 6). It counts as cell-based. The note with it: antibiotic susceptible clinical isolate.
Excerpt: as §1, §2, §3

Assay [8] has as its system GN56 Acinetobacter baumannii. The description is as above. The note with it: levofloxacin resistant clinical isolate. It counts as cell-based.
Excerpt: as §1, §2, §3

In assay [9] the test system is GN10 Pseudomonas aeruginosa. The assay can be described thus: Chequerboard synergy with polymyxin B (FICI). The format is cell-based. To be noted: combination with polymyxin B.
Excerpt: as §1, §2, §3, §4, §5, §6, §7

Converted amounts (≈) assume the structure as drawn.

We go through six compounds from patent US10155021B2, “Antimicrobial 4-oxoquinolizines” (Emergent Product Development Gaithersburg Inc., priority 2011, dated 2018).

As to `Cc1c(-c2ccc(N)c(F)c2)ccn2c(=O)c(C(=O)O)cc(C3CC3)c12` [Compound 1, 8-(3-fluoro-4-amino-phenyl)-1-cyclopropyl-9-methyl-4-oxo-quinolizine-3-carboxylic acid], the MIC was under 0.03 µg/mL in the assay with F. tularensis, 0.125 µg/mL (≈ 0.355 µM) in the assay with B. pseudomallei, 0.125 µg/mL (≈ 0.355 µM) in the assay with B. abortus and under 8 ng/mL in the assay with B. anthracis.

As to `Cc1c(-c2cc(F)c(N)cc2F)ccn2c(=O)c(C(=O)O)cc(C3CC3)c12` [Compound 2, 8-(3,6-difluoro-4-amino-phenyl)-1-cyclopropyl-9-methyl-4-oxo-quinolizine-3-carboxylic acid], the MIC in the assay with E. faecalis 29212 was under 8 ng/mL; in the assay with S. pneumoniae 49619, under 0.03 µg/mL; in [1] it was 1 µg/mL; in assay [2], 32 µg/mL; in assay [3], 8 µg/mL. Further, in assay [4], the Synergy entry is “partial synergy”.

As for `Cc1c(-c2ccc(CN)c(F)c2)ccn2c(=O)c(C(=O)O)cc(C3CC3)c12` [Compound 4, 8-(3-fluoro-4-aminomethyl-phenyl)-1-cyclopropyl-9-methyl-4-oxo-quinolizine-3-carboxylic acid], the MIC in [5] was 0.032 to 0.064 µg/mL (≈ 0.0873 to 0.175 µM); with E. faecium 19434 it was 2 µg/mL (≈ 5.46 µM); with S. aureus ATCC 25923, 0.064 µg/mL (≈ 0.175 µM); in the assay with B. thailandensis E264, 1 µg/mL (≈ 2.73 µM); in assay [6], 0.5 µg/mL (≈ 1.36 µM); in the assay with E. coli ATCC 25922 it was 0.016 µg/mL (≈ 0.0437 µM). Besides, the MIC in the assay on P. aeruginosa ATCC 27853 was found to be 1 µg/mL (≈ 2.73 µM).

With `Cc1c(-c2ccc(N)cc2)c(F)cn2c(=O)c(C(=O)O)cc(C3CC3)c12` [Compound 7, 8-(4-amino-phenyl)-1-cyclopropyl-7-fluoro-9-methyl-4-oxo-quinolizine-3-carboxylic acid], the MIC in the assay on E. faecium 19434 was found to be 2 µg/mL (≈ 5.68 µM); with E. cloacae 13047 it was 1 µg/mL (≈ 2.84 µM).

On to `Cc1c(-c2ccc(N)cc2)ccn2c(=O)c(C(=O)O)cc(C3CC3)c12` [Compound 8, 8-(4-amino-phenyl)-1-cyclopropyl-9-methyl-4-oxo-quinolizine-3-carboxylic acid], for which the MIC in the assay with S. pneumoniae 49619 is under 0.03 µg/mL.

On to `C[C@H]1COc2c(N3CCN(C)CC3)c(F)cc3c(=O)c(C(=O)O)cn1c23` [Levofloxacin, reference compound], for which the MIC in [5] stood at 0.25 µg/mL (≈ 0.692 µM); in the assay with A. baumannii ATCC 19606, 0.5 µg/mL (≈ 1.38 µM); in the assay with B. thailandensis E264, 4 µg/mL (≈ 11.1 µM); in assay [6], 8 µg/mL (≈ 22.1 µM); with E. coli ATCC 25922, 0.016 µg/mL (≈ 0.0443 µM); in [1] it was 1 µg/mL. Besides, the MIC in [2] stood at 64 µg/mL; in assay [7] it was 0.12 µg/mL; in [8] it was 32 µg/mL; in the assay on P. aeruginosa ATCC 27853, 1 µg/mL (≈ 2.77 µM). The “Interaction with polymyxin B, P. aeruginosa GN10” value in assay [9] is reported as “No interaction”.
